The data set in a line: Enzymatic bleaching of softwood sulfate pulp with laccase and mediator; kappa number determined after NaOH extraction. To be noted: laccase from Trametes versicolor 15 U/g of pulp; incubation time 2 hours; pH 4.5; 45° C.; oxygen pressure 1-10 bar; mediator dosage per 5 g of pulp as in table.

Results on two molecules are retold here after patent US20010018956A1, “Multi-component system for modifying, degrading or bleaching lignin, lignin-containing materials or similar substances and processes for its use” (CONSORTIUM FUR ELEKTROCHEMISCHE INDUSTRIE GmbH, priority 1996, published 2001).

Procedure: 5 g of bone-dry pulp (softwood O2 delignified), pulp consistency 30% (about 17 g moist) are added to the following solutions:
A) 56.5 mg of N-hydroxyacetanilide are added to 20 ml of tap water, while stirring, and the pH is adjusted with 0.5 mol/l of H2SO4 solution such that pH 4.5 results after addition of the pulp and the enzyme.
B) An amount of laccase from Trametes versicolor is added to 5 ml of tap water such that an activity of 15 U (1 U=conversion of 1 μmol of ABTS/minute/ml of enzyme) per g of pulp results.
Solutions A and B are brought together and topped up to 33 ml. After addition of the pulp, the mixture is mixed with a dough kneader for 2 minutes.
The pulp is then introduced into a reaction bomb preheated to 45° C. and incubated under an increased oxygen pressure of 1-10 bar for 1-4 hours.
Thereafter, the pulp is washed over a nylon screen (30 gm) and extracted for 1 hour at 60° C. at a pulp consistency of 2% with 8% of NaOH per g of pulp.
After renewed washing of the pulp, the kappa number is determined.

`CC(=O)N(O)c1ccc(C#N)cc1` [N-hydroxy-4-cyanoacetanilide] returned a Ligin degradation of 35.6%.
In turn, `O=C(Oc1ccccc1)N(O)c1ccccc1` [Phenyl N-hydroxy-N-phenylcarbamate] registered a Ligin degradation of 20.0%.
